Laboratory results: patent US20240109868A1, “EP300/CBP MODULATOR, PREPARATION METHOD THEREFOR AND USE THEREOF” (Miracure Biotechnology Limited, priority 2022, published 2024)

Experiments:
[1] = test system: vCap Cell; assay: vCap cell growth inhibition, CellTiter-Glo, 72 h; assay type: cell-based; conditions: Homo sapiens, VCaP, 72 h, vCap cells, 72 h culture
Description: (§1) 22RV1 or vCap cells were cultured in RPMI-1640 medium (10% fetal bovine serum and 100 units (per mL) of penicillin/streptomycin dual antibody were added to RPMI-1640) in a 37° C., 5% CO2 cell incubator. Cells at the logarithmic growth phase were inoculated onto a 96-well cell culture plate at 5×10^3 cells/100 μL/well and cultured overnight. Solutions of different concentrations of an active compound in DMSO were added, with the final concentration being 0.5% DMSO. The positive control was 1% TweeN2O, and the negative control was 0.5% DMSO. After 72 h of culture, an equal volume of CellTiter-Glo was added to each well, and the mixtures were mixed homogeneously by shaking for 2 min. The plate was let stand at room temperature for 10 min, and fluorescence signal values were read using a microplate reader. Data were analyzed using Prism 7.0 and graphs were generated. The values are shown as mean f SEM (N=2). […] The X-axis represents compound concentration (μM), and the Y-axis represents % inhibition.

[2] = test system: 22Rv1 Cell; assay: 22RV1 cell growth inhibition, CellTiter-Glo, 72 h; assay type: cell-based; conditions: Homo sapiens, 22Rv1, 72 h, 22RV1 cells, 72 h culture
Description: as §1

CNC(=O)N1CCc2cc(C3CCC(O)CC3)cc(N3CCCc4cc(-c5cnn(C)c5)c(C(F)F)cc43)c2C1 (centres unmarked) [Compound M001180]
IC50 [1]: < 1000 nM | IC50 [2]: > 1000 nM

CNC(=O)N1Cc2nc(C3CCOCC3)nc(N3CCCc4cc(-c5cnn(C)c5)c(C(F)F)cc43)c2C1 [Compound M001244]
IC50 [1]: > 1000 nM | IC50 [2]: > 1000 nM

CC(=O)N1Cc2cc([C@H]3CC[C@@H](N(C)C)CC3)cc(N3CCCc4cc(-c5cnn(C)c5)c(C(F)F)cc43)c2C1 [Compound M001303]
IC50 [2]: > 1000 nM

CNC(=O)N1CCc2cc(C3CCN(CCF)C(=O)C3)cc(N3CCCc4cc(-c5cnn(C)c5)c(C(F)F)cc43)c2C1 (centres unmarked) [Compound M001251]
IC50 [2]: > 1000 nM

CC(=O)N1Cc2cc(C3COC(=O)N(C)C3)cc(N3CCCc4cc(-c5cnn(C)c5)c(C(F)F)cc43)c2C1 (centres unmarked) [Compound M001238]
IC50 [2]: > 1000 nM

CNC(=O)N1CCc2cc(-c3ccn(C4CCC(=O)NC4=O)c(=O)c3)cc(N3CCCc4cc(-c5cnn(C)c5)c(C(F)F)cc43)c2C1 (centres unmarked) [Compound M001300, 8-(7-(difluoromethyl)-6-(1-methyl-1H-pyrazol-4-yl)-3,4-dihydroquinolin-1(2H)-yl)-6-(1-(2,6-dioxopiperidin-3-yl)-2-oxo-1,2-dihydropyridin-4-yl)-N-methyl-3,4-dihydroisoquinoline-2(1H)-carboxamide]
IC50 [2]: > 1000 nM

CNC(=O)N1CCc2cc(C3CCN(O)CC3)cc(N3CCCc4cc(-c5cnn(C)c5)c(C(F)F)cc43)c2C1 [Compound M001276, 8-[7-(difluoromethyl)-6-(1-methylpyrazol-4-yl)-3,4-dihydro-2H-quinolin-1-yl]-6-(1-hydroxypiperidin-4-yl)-N-methyl-3,4-dihydro-1H-isoquinoline-2-carboxamide]
IC50 [2]: > 1000 nM

CNC(=O)N1CCc2cc(C3CCN(CC(C)O)C(=O)C3)cc(Nc3cc(C(F)F)c(-c4cnn(C)c4)cc3F)c2C1 (centres unmarked) [Compound M001240]
IC50 [2]: > 1000 nM

CNC(=O)N1CCc2cc(C3CCN(CC(F)F)C(=O)C3)cc(N3CCCc4cc(-c5cnn(C)c5)c(C(F)F)cc43)c2C1 (centres unmarked) [Compound M001255]
IC50 [2]: < 1000 nM

CNC(=O)N1CCc2cc([C@H]3CC[C@H](N)CC3)cc(N3CCCc4cc(-c5cnn(C)c5)c(C(F)F)cc43)c2C1 [Compound M001319]
IC50 [2]: > 1000 nM

CNC(=O)N1CCc2cc([C@H]3CC[C@H](NC(C)=O)CC3)cc(N3CCCc4cc(-c5cnn(C)c5)c(C(F)F)cc43)c2C1 [Compound M001317]
IC50 [2]: > 1000 nM

CC(=O)N1Cc2cc(C3CCN(CCO)C(=O)C3)cc(N3CCCc4cc(-c5cnn(C)c5)c(C(F)F)cc43)c2C1 (centres unmarked) [Compound M001247]
IC50 [2]: > 1000 nM

CNC(=O)N1CCc2cc(C3CCC(=O)N(C)C3)cc(Nc3cc(C(F)F)c(-c4cnn(C)c4)cc3F)c2C1 (centres unmarked) [Compound M001232, 8-((5-(difluoromethyl)-2-fluoro-4-(1-methyl-1H-pyrazol-4-yl)phenyl)amino)-N-methyl-6-(1-methyl-6-oxopiperidin-3-yl)-3,4-dihydroisoquinoline-2(1H)-carboxamide]
IC50 [2]: > 1000 nM

CC(=O)N1Cc2cc(C3CCC(=O)N(C)C3)cc(Nc3cc(C(F)F)c(-c4cnn(C)c4)cc3F)c2C1 (centres unmarked) [Compound M001233]
IC50 [2]: > 1000 nM

CC(=O)N1Cc2cc(C3CCC(=O)N(CCF)C3)cc(N3CCCc4cc(-c5cnn(C)c5)c(C(F)F)cc43)c2C1 (centres unmarked) [Compound M001257]
IC50 [2]: > 1000 nM

CC(=O)N1Cc2cc(C3CCN(CCF)C(=O)C3)cc(N3CCCc4cc(-c5cnn(C)c5)c(C(F)F)cc43)c2C1 (centres unmarked) [Compound M001250]
IC50 [2]: > 1000 nM

CNC(=O)N1CCc2cc([C@H]3CC[C@@H](N)CC3)cc(N3CCCc4cc(-c5cnn(C)c5)c(C(F)F)cc43)c2C1 [Compound M001318]
IC50 [2]: > 1000 nM

CNC(=O)N1CCc2cc(C3CCC(=O)N(CC(C)O)C3)cc(N3CCCc4cc(-c5cnn(C)c5)c(C(F)F)cc43)c2C1 (centres unmarked) [Compound M001223]
IC50 [2]: > 1000 nM

CC(=O)N1Cc2cc(C3CCN(CC(F)F)C(=O)C3)cc(N3CCCc4cc(-c5cnn(C)c5)c(C(F)F)cc43)c2C1 (centres unmarked) [Compound M001254]
IC50 [2]: < 1000 nM

CNC(=O)N1CCc2cc(C3CCC(=O)N(CCF)C3)cc(N3CCCc4cc(-c5cnn(C)c5)c(C(F)F)cc43)c2C1 (centres unmarked) [Compound M001256]
IC50 [2]: > 1000 nM

CC(=O)N1Cc2cc([C@H]3CC[C@@H](NS(C)(=O)=O)CC3)cc(N3CCCc4cc(-c5cnn(C)c5)c(C(F)F)cc43)c2C1 [Compound M001305]
IC50 [2]: < 1000 nM

COC(=O)N1CCc2cc(C3CCC(OC)CC3)cc(N3CCCc4cc(-c5cnn(C)c5)c(C(F)F)cc43)c2C1 (centres unmarked) [Compound M001271]
IC50 [2]: > 1000 nM

CC(=O)N1Cc2cc(C3CCCNC3=O)cc(N3CCCc4cc(-c5cnn(C)c5)c(C(F)F)cc43)c2C1 (centres unmarked) [Compound M001258]
IC50 [2]: > 1000 nM

CN[C@H]1CC[C@H](c2cc3c(c(N4CCCc5cc(-c6cnn(C)c6)c(C(F)F)cc54)c2)CN(C(C)=O)C3)CC1 [Compound M001311]
IC50 [2]: > 1000 nM

CC(=O)N1Cc2cc(C3CCN(CC(C)O)C(=O)C3)cc(Nc3cc(C(F)F)c(-c4cnn(C)c4)cc3F)c2C1 (centres unmarked) [Compound M001241]
IC50 [2]: > 1000 nM

CNC(=O)N1CCc2cc(C3CCN(CCO)C(=O)C3)cc(N3CCCc4cc(-c5cnn(C)c5)c(C(F)F)cc43)c2C1 (centres unmarked) [Compound M001248]
IC50 [2]: > 1000 nM

CC(=O)N1Cc2cc(C3CCC(=O)N(C)C3)cc(N3CCCc4cc(-c5cn(C)nc5C(=O)N(C)C)c(C(F)F)cc43)c2C1 (centres unmarked) [Compound M001227]
IC50 [2]: > 1000 nM

CNC1CCC(c2cc3c(c(N4CCCc5cc(-c6cnn(C)c6)c(C(F)F)cc54)c2)CN(C(C)=O)C3)CC1 (centres unmarked) [Compound M001302]
IC50 [2]: > 1000 nM

CNC(=O)N1CCc2cc(C3CCN(S(C)(=O)=O)CC3)cc(N3CCCc4cc(-c5cnn(C)c5)c(C(F)F)cc43)c2C1 [Compound M001306]
IC50 [2]: > 1000 nM

CC(=O)N[C@H]1CC[C@@H](c2cc3c(c(N4CCCc5cc(-c6cnn(C)c6)c(C(F)F)cc54)c2)CN(C(C)=O)C3)CC1 [Compound M001308]
IC50 [2]: < 1000 nM

CC(=O)N1Cc2cc([C@H]3CC[C@H](NS(C)(=O)=O)CC3)cc(N3CCCc4cc(-c5cnn(C)c5)c(C(F)F)cc43)c2C1 [Compound M001309]
IC50 [2]: < 1000 nM

CNC(=O)N1CCc2cc([C@H]3CC[C@@H](NC(C)=O)CC3)cc(N3CCCc4cc(-c5cnn(C)c5)c(C(F)F)cc43)c2C1 [Compound M001316]
IC50 [2]: > 1000 nM

CC(=O)N1Cc2cc([C@H]3CC[C@H](N(C)C)CC3)cc(N3CCCc4cc(-c5cnn(C)c5)c(C(F)F)cc43)c2C1 [Compound M001312]
IC50 [2]: > 1000 nM

CC(=O)N1Cc2cc(C3CCC(=O)N(CC(C)O)C3)cc(N3CCCc4cc(-c5cnn(C)c5)c(C(F)F)cc43)c2C1 (centres unmarked) [Compound M001226]
IC50 [2]: > 1000 nM

CNC(=O)N1CCc2cc(C3CCN(C4CCC(=O)NC4=O)C(=O)C3)cc(N3CCCc4cc(-c5cnn(C)c5)c(C(F)F)cc43)c2C1 (centres unmarked) [Compound M001287]
IC50 [2]: > 1000 nM

CNC(=O)N1CCc2cc(C3CCC(NS(C)(=O)=O)CC3)cc(N3CCCc4cc(-c5cnn(C)c5)c(C(F)F)cc43)c2C1 (centres unmarked) [Compound M001314]
IC50 [2]: > 1000 nM

CC(=O)N1Cc2cc(C3CCN(O)CC3)cc(N3CCCc4cc(-c5cnn(C)c5)c(C(F)F)cc43)c2C1 [Compound M001277]
IC50 [2]: > 1000 nM

COC(=O)N1CCc2cc(C3CCOCC3)cc(N3CCCc4cc(-c5cnn(C)c5)c(C(F)F)cc43)c2C1 [Compound M001270]
IC50 [2]: > 1000 nM

CCN1CCN(c2cc3c(c(N4CCCc5cc(-c6cnn(C)c6)c(C(F)F)cc54)c2)CN(C(C)=O)C3)CC1=O [Compound M001262]
IC50 [2]: > 1000 nM
